Measurements as given in PubChem BioAssay (NCI).
Values joined by “and” are separate entries in the source; they are usually repeats but may differ in a detail not shown here. Equal entries are not always repeated.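 Grown in 96-well plates, cells were treated for 48 hours with each compound at five concentrations. Insufficient inhibition: endpoint recorded as highest concentration tested. At the GI50, growth is halved. TGI: concentration producing complete growth inhibition.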

What was measured:
Assay in all cases: growth of human tumour cells (NCI), 48 h
[1] = test system: NCI-H460 lung
[2] = test system: PC-3 prostate
[3] = test system: ACHN renal
[4] = test system: SK-MEL-2 melanoma
[5] = test system: T-47D breast
[6] = test system: HOP-92 NSCLC
[7] = test system: HCT-116 colon
[8] = test system: SF-268 CNS

SMILES	TGI [1]	TGI [2]	TGI [3]	TGI [4]	TGI [5]	TGI [6]	TGI [7]	TGI [8]	GI50 [1]	GI50 [2]	GI50 [4]	GI50 [5]	GI50 [6]	GI50 [7]	GI50 [8]	GI50 [3]
C1CSCCSCCCSCCSCCCSCCSCCCSCCSC1	> 100 µM	> 100 µM	> 100 µM	> 100 µM	> 100 µM	> 100 µM	> 100 µM	> 100 µM	–	–	–	–	–	–	–	–
CN1CCc2nc3sc(C(N)=O)c(N)c3c(-c3cccs3)c2C1	> 100 µM	> 100 µM	–	6.22 µM	> 100 µM	9.16 µM	> 100 µM	> 100 µM	3.71 µM	4.58 µM	2.67 µM	2.81 µM	3.16 µM	2.31 µM	3.85 µM	–
Fc1ccc(/C=N/n2c(-c3ccc(F)c(Cl)c3)n[nH]c2=S)cc1	38.3 µM	> 100 µM	–	> 100 µM	40.1 µM	34.6 µM	29.9 µM	42.1 µM	19.2 µM	27.3 µM	38.7 µM	20.7 µM	15.1 µM	16.3 µM	19.8 µM	–
CCN1C(=O)N(CC)C2C1NN=c1s/c(=C\c3ccc(F)cc3)c(=O)n12 (configuration not stated)	> 100 µM	> 100 µM	> 100 µM	> 100 µM	> 100 µM	> 100 µM	> 100 µM	> 100 µM	0.218 µM	0.217 µM	0.425 µM	30.8 µM	7.43 µM	0.211 µM	0.807 µM	0.336 µM
c1cc(N2CCN(c3ccc(C4=NCCCN4)cc3)CC2)ccc1C1=NCCCN1	> 100 µM	> 100 µM	> 100 µM	> 100 µM	> 100 µM	> 100 µM	> 100 µM	> 100 µM	> 58.6 µM	> 52.7 µM	> 100 µM	> 100 µM	73 µM	50.2 µM	> 75.8 µM	> 69.9 µM
CSc1ccc(C2=NN(C(C)=O)C(c3ccc(-c4ccc(Cl)cc4)o3)C2)cc1 (configuration not stated)	> 100 µM	> 100 µM	> 100 µM	> 100 µM	79.6 µM	80.1 µM	> 100 µM	71.4 µM	40 µM	20.1 µM	28.9 µM	17.9 µM	22.7 µM	18.7 µM	21.7 µM	37.1 µM
Nc1n[nH]c2ccc([C@@H]3Nc4cc5c(cc4[C@H]4C6CCC(C6)[C@@H]34)C(=O)NC5)cc12 (some centres not stated)	> 100 µM	> 100 µM	> 100 µM	> 100 µM	> 100 µM	> 100 µM	> 100 µM	> 100 µM	0.424 µM	0.471 µM	15 µM	–	0.375 µM	0.343 µM	1.04 µM	0.726 µM
CCCCNc1nc(NC2OCC(OC(C)=O)C(OC(C)=O)C2OC(C)=O)c(N=O)c(=O)n1C (configuration not stated)	> 10 µM	> 10 µM	> 10 µM	> 10 µM	> 10 µM	> 10 µM	> 10 µM	> 10 µM	–	–	–	–	–	–	–	–
Oc1cccc2c1NCCC2	4.66 µM	> 100 µM	> 70.7 µM	2.96 µM	96.2 µM	0.066 µM	> 100 µM	> 67.2 µM	0.103 µM	0.119 µM	0.433 µM	0.581 µM	0.0231 µM	0.1 µM	0.244 µM	0.127 µM
Fc1cccc(F)c1C(Nc1nncs1)Nc1nncs1	> 100 µM	> 100 µM	> 100 µM	> 100 µM	> 100 µM	> 100 µM	> 100 µM	> 100 µM	–	–	–	–	–	–	–	–
Clc1ccc(C2ON=C(c3ccccc3)N2C23CC4CC(CC(C4)C2)C3)cc1 (configuration not stated)	> 10 µM	> 10 µM	> 10 µM	> 10 µM	> 10 µM	> 10 µM	> 10 µM	> 10 µM	–	–	–	–	–	–	–	–
COc1cc(C(=O)c2cc(C)c3[nH]c4ccc(O)cc4c3c2C)cc(OC)c1OC	> 100 µM	> 100 µM	> 100 µM	> 100 µM	–	> 100 µM	–	> 100 µM	< 0.0185 µM	< 0.02 µM	0.457 µM	–	0.944 µM	< 0.01 µM	0.0741 µM	< 0.0128 µM
COc1ccc(/C=C(\C)[N+](=O)[O-])cc1OC	6.56 µM	7.07 µM	3.16 µM	3.83 µM	5.1 µM	3.71 µM	3.46 µM	5.46 µM	2.54 µM	2.75 µM	1.98 µM	1.88 µM	2.01 µM	1.81 µM	2.26 µM	1.69 µM
CCC(=O)Nc1ccc(N2C(=O)/C(=C/c3ccc(OC)cc3)N=C2c2ccccc2)cc1	> 50 µM	> 50 µM	16 µM	> 50 µM	–	21.1 µM	8.9 µM	> 50 µM	2.1 µM	13.5 µM	> 50 µM	–	0.0351 µM	2.41 µM	4.88 µM	5.62 µM
COc1ccc(/C=C(/C)[N+](=O)[O-])cc1OC	7.78 µM and 9.48 µM	6.34 µM and 6.74 µM	4.19 µM and 2.82 µM	4.9 µM and 4 µM	3.29 µM and 3.23 µM	4.52 µM and 5.64 µM	3.37 µM and 2.98 µM	7.13 µM and 13.2 µM	2.78 µM and 3.14 µM	2.65 µM and 2.78 µM	2.39 µM and 1.81 µM	1.54 µM and 1.37 µM	1.78 µM and 2.48 µM	1.76 µM and 1.56 µM	2.82 µM and 3.61 µM	2.18 µM and 1.46 µM
CC(CO)(Nc1ccc([N+](=O)[O-])cc1[N+](=O)[O-])C(=O)O (configuration not stated)	28.8 µM	> 100 µM	32.7 µM	55.4 µM	–	–	> 100 µM	48.9 µM	–	–	–	–	–	–	–	–
O=c1c2cc(F)ccc2sc2c(NCCCNCCO)nc3ccccc3c12	3.19 µM	3.29 µM	3.03 µM	4.01 µM	–	3.14 µM	3.32 µM	3.21 µM	1.64 µM	1.7 µM	1.94 µM	–	1.23 µM	1.73 µM	1.59 µM	1.67 µM
COc1ccc(NC(=O)C(=O)/C=C(\O)c2ccccc2)cc1	–	> 10 µM	–	–	> 10 µM	> 10 µM	–	> 10 µM	–	–	–	–	–	–	–	–
C[C@@H]1O[C@@H](O[C@@H]2[C@@H](O)[C@H](OCCc3ccc(O)c(O)c3)O[C@H](CO)[C@H]2OC(=O)/C=C/c2ccc(O)c(O)c2)[C@H](O)[C@H](OC2OC[C@](O)(CO)[C@H]2O)[C@H]1O (some centres not stated)	> 100 µM	> 100 µM	> 100 µM	> 100 µM	> 100 µM	–	65.4 µM	53.4 µM	> 100 µM	7.41 µM	52.6 µM	> 100 µM	–	30.4 µM	–	> 100 µM
C[n+]1c2ccccc2nc2c(N)cc(N)cc21	59 µM	> 100 µM	> 100 µM	–	40.9 µM	> 100 µM	83.6 µM	13.6 µM	16.8 µM	21.3 µM	–	3.95 µM	35.4 µM	10.5 µM	0.712 µM	45.6 µM
O=C(O)c1ccccc1NC(=S)c1ccccc1	> 100 µM	> 100 µM	84.6 µM	–	> 100 µM	44.1 µM	> 100 µM	> 100 µM	–	–	–	–	–	–	–	–
N#CCCNc1nonc1-c1nc2ccccc2n1CC(=O)c1ccc(NC(=O)[C@@H](N)CCCCN)cc1	> 100 µM	> 100 µM	> 100 µM	–	> 100 µM	> 100 µM	> 100 µM	> 100 µM	0.0344 µM	0.046 µM	–	> 73.8 µM	0.487 µM	0.04 µM	0.071 µM	0.0583 µM
C[CH2][Hg][S]c1ccccc1C(=O)O	8.98 µM	17.7 µM	2.83 µM	–	2.79 µM	–	2.58 µM	3.18 µM	2.64 µM	3.88 µM	–	0.522 µM	–	1.31 µM	1.68 µM	1.49 µM
COc1ccc(C(=O)/C=C/c2ccc(OCC#N)cc2)cc1	81.1 µM	> 100 µM	> 100 µM	–	46 µM	67.4 µM	24.6 µM	> 100 µM	–	–	–	–	–	–	–	–
CC1c2ccccc2CCN1c1ccc(CO)c(Cl)c1 (configuration not stated)	3.3 µM	> 83.5 µM	> 81 µM	–	0.311 µM	16.6 µM	12.6 µM	> 100 µM	0.0864 µM	19.6 µM	–	0.053 µM	0.19 µM	0.0345 µM	40.8 µM	22.6 µM
Cc1ccncc1C(N)=O	> 100 µM	> 100 µM	> 100 µM	–	> 100 µM	> 100 µM	> 100 µM	> 100 µM	> 100 µM	> 100 µM	–	> 100 µM	> 100 µM	> 100 µM	> 100 µM	> 100 µM
NNc1nnc(-c2nnc(NN)o2)o1	> 10 µM	> 10 µM	> 10 µM	–	> 10 µM	> 10 µM	> 10 µM	> 10 µM	–	–	–	–	–	–	–	–
O=Nc1c(-c2c(O)[nH]c3ncccc23)[nH]c2ccccc12	> 100 µM	> 100 µM	> 100 µM	–	> 100 µM	> 100 µM	> 100 µM	> 100 µM	7.25 µM	> 26.1 µM	–	2.99 µM	–	6.12 µM	> 100 µM	2.58 µM
